Measurements from patent US9474275B2, “Cyanoenamines and their use as fungicides” (priority 2010, dated 2016).

How the values were obtained:
[1] = method [a]: LC-MS at pH 2.7, 0.1% formic acid in water / acetonitrile, linear gradient 10% to 95% acetonitrile
Description: Measurement of log P values was performed according EEC directive 79/831 Annex V.A8 by HPLC (High Performance Liquid Chromatography) on reversed phase columns with the following methods:
^[a] measurement of LC-MS was done at pH 2.7 with 0.1% formic acid in water and with acetonitrile (contains 0.1% formic acid) as eluent with a linear gradient from 10% acetonitrile to 95% acetonitrile.

Phytophthora infestans = type: in vivo; details: tomato plants, preventive spray, 500 ppm of active ingredient, evaluated 7 days after inoculation; 0% = untreated control, 100% = no disease

SMILES | LogP [1] | efficacy (Phytophthora infestans) [%]
CCCC(=O)C(C#N)=C(NC(C)C(C)OC)c1cccnc1Cl (mixture of isomers) [Compound 114] | 3.02^[a] | 95
CCCC(=O)C(C#N)=C(NC(C)c1ccco1)c1cccnc1Cl (racemic) [Compound 99] | 3.31^[a] | –
CCCC(=O)C(C#N)=C(NC(C)C1=NOCC1)c1cccnc1Cl (racemic) [Compound 100] | 2.47^[a] | 95
CCCC(=O)C(C#N)=C(NC(C)C1(C)CC1)c1cccnc1Cl (racemic) [Compound 103] | 3.57^[a] | 95
CCCC(=O)C(C#N)=C(NC(C)C1CCC1)c1cccnc1Cl (racemic) [Compound 104] | 3.81^[a] | 95
CCCC(=O)C(C#N)=C(NC(C)c1nc(C)c(C)s1)c1cccnc1Cl (racemic) [Compound 105] | 3.02^[a] | –
C#CC(C)NC(=C(C#N)C(=O)CCC)c1cccnc1Cl (racemic) [Compound 112] | 2.9^[a] | 83
CC#CC(C)NC(=C(C#N)C(=O)CCC)c1cccnc1Cl (racemic) [Compound 113] | 3.09^[a] | 85
CCCC(=O)C(C#N)=C(NC(C)CC(C)C)c1cccnc1Cl (racemic) [Compound 115] | 3.99^[a] | –
CCCC(=O)C(C#N)=C(NC(C)CCc1ccccc1)c1cccnc1Cl (racemic) [Compound 116] | 4.16^[a] | 85
CCCC(=O)C(C#N)=C(NC(C)CCC)c1cccnc1Cl (racemic) [Compound 117] | 3.65^[a] | 80
CCCC(=O)C(C#N)=C(NC(C)CC1CC1)c1cccnc1Cl (racemic) [Compound 118] | 3.63^[a] | –
CCCC(=O)C(C#N)=C(NC(C)C1(C)CC1)c1cn(C)nc1C(F)F (racemic) [Compound 121] | 3.33^[a] | 93
CCCC(=O)C(C#N)=C(NC(C)CC)c1cn(C)nc1C(F)F (racemic) [Compound 122] | 2.98^[a] | 90
CCCC(=O)C(C#N)=C(NC(C)c1nc(C)c(C)s1)c1cn(C)nc1C(F)F (racemic) [Compound 123] | 2.92^[a] | –
C#CC(C)NC(=C(C#N)C(=O)CCC)c1cn(C)nc1C(F)F (racemic) [Compound 124] | 2.66^[a] | 93
CC#CC(C)NC(=C(C#N)C(=O)CCC)c1cn(C)nc1C(F)F (racemic) [Compound 125] | 2.98^[a] | 75
CCCC(=O)C(C#N)=C(NC(C)CC(C)C)c1cn(C)nc1C(F)F (racemic) [Compound 127] | 3.63^[a] | –
CCCC(=O)C(C#N)=C(NC(C)CCc1ccccc1)c1cn(C)nc1C(F)F (racemic) [Compound 128] | 3.83^[a] | –
CCCC(=O)C(C#N)=C(NC(C)CCC)c1cn(C)nc1C(F)F (racemic) [Compound 129] | 3.33^[a] | 75
CCCC(=O)C(C#N)=C(NC(C)CC1CC1)c1cn(C)nc1C(F)F (racemic) [Compound 130] | 3.35^[a] | 85
CCCC(=O)C(C#N)=C(NC(C)C(=O)OCC)c1cn(C)nc1C(F)F (racemic) [Compound 131] | 2.78^[a] | 80
CCCC(=O)C(C#N)=C(NC(C)c1ccco1)c1cn(C)nc1C(F)F (racemic) [Compound 132] | 3.04^[a] | 90
COCC(=O)C(C#N)=C(NC(C)c1ccccn1)c1cccnc1Cl (stereo not drawn) [Compound 1] | 1.78^[a] | 93
CC(C)C(C)NC(=C(C#N)C(=O)C1(Cl)CC1)c1cccnc1Cl (stereo not drawn) [Compound 3] | 3.44^[a] | –
CC(C)C(C)NC(=C(C#N)C(=O)C1CCCCO1)c1cccnc1Cl (stereo not drawn) [Compound 6] | 3.00^[a] | –
CC(C)C(C)NC(=C(C#N)C(=O)C1CCCC1)c1cccnc1Cl (stereo not drawn) [Compound 7] | 4.23^[a] | –

SMILES | LogP [1] | efficacy (Phytophthora infestans) [%]
CC(NC(=C(C#N)C(=O)Cc1ccccc1)c1cccnc1Cl)C1CC1 (stereo not drawn) [Compound 8] | 3.23^[a] | –
CC(C)C(=O)C(C#N)=C(NC(C)C(C)C)c1cccnc1Cl (stereo not drawn) [Compound 9] | 3.60^[a] | –
CC(NC(=C(C#N)C(=O)C1CCC1)c1cccnc1Cl)C1CC1 (stereo not drawn) [Compound 12] | 3.44^[a] | –
CC(C)C(C)NC(=C(C#N)C(=O)CN(C)C)c1cccnc1Cl (stereo not drawn) [Compound 13] | 1.39^[a] | –
CC(NC(=C(C#N)C(=O)C1CCCC1)c1cccnc1Cl)C1CC1 (stereo not drawn) [Compound 14] | 3.83^[a] | –
CNCC(=O)C(C#N)=C(NC(C)C(C)C)c1cccnc1Cl (stereo not drawn) [Compound 15] | 1.50^[a] | –
CC(C)OCC(=O)C(C#N)=C(NC(C)C(C)C)c1cccnc1Cl (stereo not drawn) [Compound 19] | 3.19^[a] | –
CC(NC(=C(C#N)C(=O)C1CCCC1)c1cn(C)nc1C(F)F)C1CC1 (stereo not drawn) [Compound 21] | 3.58^[a] | –
CCC(=O)C(C#N)=C(NC(C)C1CC1)c1cccnc1Cl (stereo not drawn) [Compound 22] | 2.88^[a] | –
CC(C)C(C)NC(=C(C#N)C(=O)Cc1ccccc1)c1cccnc1Cl (stereo not drawn) [Compound 29] | 3.85^[a] | –
CCCC(=O)C(C#N)=C(NC1CC1CC)c1cccnc1Cl (stereo not drawn) [Compound 31] | 3.51^[a] | –
CC(C)C(C)NC(=C(C#N)C(=O)CCl)c1cn(C)nc1C(F)F (stereo not drawn) [Compound 32] | 2.86^[a] | –
CC(C)C(C)NC(=C(C#N)C(=O)CN1CCCC1)c1cccnc1Cl (stereo not drawn) [Compound 35] | 1.52^[a] | –
CCC(F)(F)C(=O)C(C#N)=C(NC(C)C(C)C)c1cccnc1Cl (stereo not drawn) [Compound 37] | 3.55^[a] | –
CCCCC(=O)C(C#N)=C(NC1CC1CC)c1cccnc1Cl (stereo not drawn) [Compound 38] | 3.94^[a] | –
CC(C)C(C)NC(=C(C#N)C(=O)CNC1CC1)c1cccnc1Cl (stereo not drawn) [Compound 39] | 1.74^[a] | –
COCC(=O)C(C#N)=C(NC(C)C(C)C)c1cccnc1Cl (stereo not drawn) [Compound 41] | 2.48^[a] | –
CC(NC(=C(C#N)C(=O)C1CC1)c1cccnc1Cl)C1CC1 (stereo not drawn) [Compound 42] | 3.06^[a] | –
CCCC(=O)C(C#N)=C(NC(C)C1CC1)c1cccnc1Cl (stereo not drawn) [Compound 43] | 3.25^[a] | –
CC(C)C(C)NC(=C(C#N)C(=O)CCl)c1cccnc1Cl (stereo not drawn) [Compound 45] | 3.02^[a] | –
CSCC(=O)C(C#N)=C(NC(C)C(C)C)c1cccnc1Cl (stereo not drawn) [Compound 46] | 3.13^[a] | –
CC(C)C(C)NC(=C(C#N)C(=O)c1ccco1)c1cccnc1Cl (stereo not drawn) [Compound 48] | 3.11^[a] | –
COCC(=O)C(C#N)=C(NC(C)C1CC1)c1cccnc1Cl (stereo not drawn) [Compound 49] | 2.23^[a] | –
CNCC(=O)C(C#N)=C(NC(C)C(C)C)c1cn(C)nc1C(F)F (stereo not drawn) [Compound 50] | 1.60^[a] | –
CC(C)C(C)NC(=C(C#N)C(=O)C1CCCCC1)c1cccnc1Cl (stereo not drawn) [Compound 53] | 4.50^[a] | –
CC(NC(=C(C#N)C(=O)CC1CC1)c1cccnc1Cl)C1CC1 (stereo not drawn) [Compound 54] | 3.31^[a] | –
CC(NC(=C(C#N)C(=O)c1ccco1)c1cccnc1Cl)C1CC1 (stereo not drawn) [Compound 55] | 2.80^[a] | –

SMILES | LogP [1] | efficacy (Phytophthora infestans) [%]
CCNCC(=O)C(C#N)=C(NC(C)C(C)C)c1cccnc1Cl (stereo not drawn) [Compound 57] | 1.68^[a] | –
CC(C)C(C)NC(=C(C#N)C(=O)CNC1CC1)c1cn(C)nc1C(F)F (stereo not drawn) [Compound 58] | 1.78^[a] | –
CCNCC(=O)C(C#N)=C(NC(C)C(C)C)c1cn(C)nc1C(F)F (stereo not drawn) [Compound 60] | 1.63^[a] | –
CC(C)C(C)NC(=C(C#N)C(=O)C1CC1C)c1cccnc1Cl (stereo not drawn) [Compound 61] | 3.80^[a] | –
COCCC(=O)C(C#N)=C(NC(C)C(C)C)c1cccnc1Cl (stereo not drawn) [Compound 65] | 2.78^[a] | –
CC(C)C(C)NC(=C(C#N)C(=O)CN1CCCC1)c1cn(C)nc1C(F)F (stereo not drawn) [Compound 66] | 1.31^[a] | –
COC(C)C(=O)C(C#N)=C(NC(C)C(C)C)c1cccnc1Cl (stereo not drawn) [Compound 67] | 2.70^[a] | –
CCC(=O)C(C#N)=C(NC1CC1CC)c1cccnc1Cl (stereo not drawn) [Compound 68] | 3.13^[a] | –
CCC(=O)C(C#N)=C(NC(C)C1CC1)c1cn(C)nc1C(F)F (stereo not drawn) [Compound 69] | 2.73^[a] | –
CC(C)C(C)NC(=C(C#N)C(=O)C1CC1)c1cccnc1Cl (stereo not drawn) [Compound 71] | 3.39^[a] | –
CC(C)C(C)NC(=C(C#N)C(=O)CCCCl)c1cccnc1Cl (stereo not drawn) [Compound 74] | 3.63^[a] | –
CCC(C)C(=O)C(C#N)=C(NC(C)C(C)C)c1cccnc1Cl (stereo not drawn) [Compound 76] | 3.9^[a] | –
COCC(=O)C(C#N)=C(NC(C)c1nccs1)c1cccnc1Cl (stereo not drawn) [Compound 77] | – | 93
CC(C)C(C)NC(=C(C#N)C(=O)C1CCCC1)c1cn(C)nc1C(F)F (stereo not drawn) [Compound 78] | 3.81^[a] | –
CCCC(=NOC)C(C#N)=C(NC(C)C(C)C)c1cn(C)nc1C(F)F (stereo not drawn) [Compound 79] | 4.24^[a] | –
COCC(=O)C(C#N)=C(NC(C)c1nccs1)c1cn(C)nc1C(F)F (stereo not drawn) [Compound 82] | 1.76^[a] | –
CCCC(=O)C(C#N)=C(NC(C)C(C)C)c1cc(C)nn1C(F)F (stereo not drawn) [Compound 92] | 3.92^[a] | –
Cc1cc(C(NC(C)C(C)C)=C(C#N)C(=O)CC2CC2)n(C(F)F)n1 (stereo not drawn) [Compound 93] | 3.87^[a] | –
CCCC(=O)C(C#N)=C(NC(C)c1nccs1)c1cc(C)nn1C(F)F (stereo not drawn) [Compound 94] | 3.11^[a] | –
CCCC(=O)C(C#N)=C(NC(C)COC)c1cc(C)nn1C(F)F (stereo not drawn) [Compound 95] | 3.13^[a] | –
COCC(C)NC(=C(C#N)C(=O)CC1CC1)c1cc(C)nn1C(F)F (stereo not drawn) [Compound 96] | 3.11^[a] | –
Cc1cc(C(NC(C)c2nccs2)=C(C#N)C(=O)CC2CC2)n(C(F)F)n1 (stereo not drawn) [Compound 97] | 3.09^[a] | –
CCCC(=O)C(C#N)=C(NC(C)Cc1ccccc1)c1cccnc1Cl (stereo not drawn) [Compound 108] | 3.83^[a] | –
CCCC(=O)C(C#N)=C(NC(C)C(=O)NC)c1cn(C)nc1C(F)F (stereo not drawn) [Compound 109] | 1.79^[a] | –
CCCC(=O)C(C#N)=C(NC(C)Cc1ccccc1)c1cn(C)nc1C(F)F (stereo not drawn) [Compound 111] | 3.55^[a] | –
